Reference: PMC11603075 (Communications Biology, 2024)

What was measured:
Format in all cases: biochemical
KDM4E [1] = molecular target: T1, KDM4E (Homo sapiens, UniProt B2RXH2); test: FDH-coupled demethylation assay, Michaelis–Menten kinetics
T1 construct: KDM4E1–337; made in house; host or cells: E. coli
T1 sequence (B2RXH2 1-337): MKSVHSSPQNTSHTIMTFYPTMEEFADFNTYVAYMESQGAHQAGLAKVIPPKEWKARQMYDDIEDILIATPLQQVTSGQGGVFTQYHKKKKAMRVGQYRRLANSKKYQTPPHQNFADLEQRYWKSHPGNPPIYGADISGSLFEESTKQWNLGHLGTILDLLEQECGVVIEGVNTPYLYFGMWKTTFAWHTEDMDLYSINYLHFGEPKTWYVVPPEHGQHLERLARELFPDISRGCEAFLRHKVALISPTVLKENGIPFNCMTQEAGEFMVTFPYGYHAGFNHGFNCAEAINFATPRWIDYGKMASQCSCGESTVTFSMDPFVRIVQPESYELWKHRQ
Description: The RDM activity of KDM4E with H2a(1–20)R3me2a was compared with demethylation of H3(1–21)R2me2a using a formaldehyde dehydrogenase (FDH) assay[23],[24]. KDM4E catalysed demethylation of H2a R3me2a was less efficient than H3 R2me2a by approximately three-fold under the same conditions (kcat/KM 0.89 hr^−1 µM^−1 for H2a(1–20)R3me2a and 2.58 hr^−1 µM^−1 for H3(1–21)R2me2a).
When LC–MS-based assays were used, time course assays were carried out as described; product formation (%) was plotted against time (s) using GraphPad Prism5 version 5.04. The gradient of each reaction was calculated by fitting a line of linear regression to the first-order region. The resultant slope was used to calculate reaction rate in µM hr^−1. The rate versus peptide concentration (µM) was plotted and the KM, kcat, and Vmax values determined by fitting the Michaelis–Menten equation using GraphPad Prism5 version 5.04. […]
Supplementary Figure 3 KDM4E catalysed H2a(1–20) hydroxylation and H3(1–21)R2me2a demethylation. Michaelis–Menten plots monitoring: ( a) hydroxylation of H2a(1–20) measured using LC– MS (R2 value obtained was 0.5 indicating poor goodness of fit, likely due to limited data at low substrate concentrations due to signal:noise limitations), (b) demethylation of H2a(1–20)R3me2a, and (c) demethylation of H3(1–21)R2me2a measured using the FDH-coupled demethylation assay. […]

KDM4E [2] = molecular target: T1, KDM4E; test: KDM, RDM and hydroxylation (+16 Da) activities of KDM4E with histone peptide variants by MS; conditions: MALDI–TOF or LC–MS, n = 3
Description: Fig. 3 KDM4E-catalysed hydroxylation occurs at Arg-20 on histone H2a peptide. a LC–MS/MS analysis of H2a(1–20) after KDM4E treatment. Two potential hydroxylation sites, R17 and R20, were identified, with the latter more likely (Supplementary Fig. 9). b Peptide variant studies support Arg-20 hydroxylation; specific activities: H2a(1–20), 0.65 nmol min^−1 mg^−1 SD: 0.073; H2a(1–20) with a C-terminal carboxylic acid (indicated with an -OH), no activity; H2a(1–20)R20A, no activity; H2a(1–20)R20K*, no activity; H2a(1–20)R20Kme3*, 0.44 nmol min^−1 mg^−1 SD: 0.04; H2a(1–20)R3me2a*, 0.51 nmol min^−1 mg^−1 SD: 0.05; H2a(1–20)R3A, 0.37 nmol min^−1 mg^−1 SD: 0.002; H2a(1–21)*, 0.65 nmol min^−1 mg^−1 SD 0.02; H2a(1–25, 0.35 nmol min^−1 mg^−1 SD: 0.044; and H2a(10–29), 0.02 nmol min^−1 mg^−1 SD: 0.013. Measurements employed MALDI–TOF MS except when labelled with*, which employed LC–MS (Supplementary Fig. 10 for representative MS data). n = 3 independent assays. c KDM, RDM and hydroxylation (+16 Da) activities of KDM4E are sequence and context dependent. Histone peptides (H2a, H3, H4) and variants (wild type residue in red, replaced with either K, Kme3, R or Rme2a) were incubated with KDM4E and analysed on MALDI–TOF MS. KDM, RDM and hydroxylation (+16 Da) were detected in some but not all peptides (Supplementary Fig. 10 for representative MS data). […]

KDM4E [3] = molecular target: T1, KDM4E; test: Specific hydroxylation activity of KDM4E; conditions: for extent of hydroxylation (in words): KDM4E, relative to H2a(1–20)
Description: Fig. 3 KDM4E-catalysed hydroxylation occurs at Arg-20 on histone H2a peptide. a LC–MS/MS analysis of H2a(1–20) after KDM4E treatment. Two potential hydroxylation sites, R17 and R20, were identified, with the latter more likely (Supplementary Fig. 9). b Peptide variant studies support Arg-20 hydroxylation; specific activities: H2a(1–20), 0.65 nmol min^−1 mg^−1 SD: 0.073; H2a(1–20) with a C-terminal carboxylic acid (indicated with an -OH), no activity; H2a(1–20)R20A, no activity; H2a(1–20)R20K*, no activity; H2a(1–20)R20Kme3*, 0.44 nmol min^−1 mg^−1 SD: 0.04; H2a(1–20)R3me2a*, 0.51 nmol min^−1 mg^−1 SD: 0.05; H2a(1–20)R3A, 0.37 nmol min^−1 mg^−1 SD: 0.002; H2a(1–21)*, 0.65 nmol min^−1 mg^−1 SD 0.02; H2a(1–25, 0.35 nmol min^−1 mg^−1 SD: 0.044; and H2a(10–29), 0.02 nmol min^−1 mg^−1 SD: 0.013. Measurements employed MALDI–TOF MS except when labelled with*, which employed LC–MS (Supplementary Fig. 10 for representative MS data). n = 3 independent assays. c KDM, RDM and hydroxylation (+16 Da) activities of KDM4E are sequence and context dependent. Histone peptides (H2a, H3, H4) and variants (wild type residue in red, replaced with either K, Kme3, R or Rme2a) were incubated with KDM4E and analysed on MALDI–TOF MS. KDM, RDM and hydroxylation (+16 Da) were detected in some but not all peptides (Supplementary Fig. 10 for representative MS data). (−) No mass changes observed. n = 3 independent assays. See Supplementary Table 6 for conditions. TEXT PRINTED IN THE PICTURE: (c) H2a: K/R replacement K: -; K/R replacement Kme3: KDM/ROH; K/R replacement R: ROH; K/R replacement Rme2a: KDM/ROH | (c) H3: K/R replacement K: -; K/R replacement Kme3: KDM; K/R replacement R: -; K/R replacement Rme2a: RDM | (c) H4: K/R replacement K: -; K/R replacement Kme3: -; K/R replacement R: -; K/R replacement Rme2a: RDM DOUBTS OF THE COPYIST ABOUT THIS PICTURE: Panel c: the table cells are qualitative activity classes (KDM, RDM, ROH, -) for peptide variants, not numbers; it is uncertain whether they count as results. / Panel b: the bar chart prints no values beside the bars, so nothing was taken from it.
(§1) MS-based screening assays with peptides and calf thymus histones were as reported; see Supplementary Table 6 for conditions. Time course assays were based on reported procedures. In brief, equal volumes of the enzyme and substrate solutions were combined to initiate the reaction; 10 µL of 2% (v/v) formic acid (HCOOH) in ddH2O or 100% methanol was added to 10 µL of the reaction mixture to quench reactions at different time points. Unless otherwise stated, time course assays were carried out in triplicate. In some cases, LC–MS was used instead of MALDI-TOF MS to avoid a MALDI matrix induced artefact with the hydroxylated product (Supplementary Fig. 16).
Data collected from time course assay(s) were used to plot the % conversion vs time (min) using GraphPad Prism5 version 5.04; the resultant slopes were used to fit a line with linear regression to the first-order region of the reaction. The resultant gradient was then converted from % product formation min^−1 to amount of peptide converted (demethylation and / or hydroxylation) in µM.
Supplementary Figure 17 Comparison of specific hydroxylation activities of KD M4E with H2a(1–20) when anal ysed by MALDI-TO F MS or LC–MS. Comparison of specific activities for KDM4E catalysed hydroxylation of H2a(1–20) when analysed with MALDI-TOF MS or LC–MS ([…] SD: 0.073 and 0.65 nmol·min−1·mg− 1 SD: 0.01 respectively). n = 3 (independent assays). See Supplementary Table 6 for assay […]
(also on this page, place not known: KDM4E H2a(1 –20) analysed MALDI -TOF LC –MS nmol·min −1·mg−1 nmol·min−1·mg−1 0.8specific activity (nmol·min-1·mg-1)) […]
[ E nz ym e] [Peptide] [2OG] [Ascorbate] [(NH4)2F e(S O4)2] [TCEP] Buffer pH7.5 Enzyme Cognate substrate (mM) (mM) (mM) (mM) (mM) (mM) [HE PE S]
Supplementary Table 6 Summary of MS assay conditions for substrate screening. These conditions […]

KDM4E [4] = molecular target: T1, KDM4E; test: MALDI–TOF MS demethylation/+16 Da assay, KDM4E; conditions: 60 min, 2 µM KDM4E, 10 µM peptide
From the text: Fig. 2 Histone H2a fragments are KDM5 and KDM4 substrates. […] See Supplementary Table 6 and Supplementary Fig. 2 for assay conditions and quantification, respectively. […] 0-minute MS spectrum in black, 60/90-minute spectrum in red.
as §1, with “16). […]” for “16).”
Supplementary Figure 2 Histone H2a peptide fragments are substrates of KDM4s and KDM5s.
2 for representative corresponding MALDI–TOF MS traces. Bar graphs comparing % product format ion (+16 Da and demethylation) of H2a(1–20)R3me2a by (a) K DM5 A–D (after 90 minutes) and (b) KDM4A–E ( a ft er 60 minutes), analysed by MALDI– TOF MS. n = (a) 2, (b) 3 (independent assays). See Supplementary Table 6 for assay condit ions. See Figure S13 A 1 for a positive control. […]

[5] = MALDI–TOF MS, mean of n = 3, SD: H2a(1–20) 0.073, R3A 0.002, H2a(1–25) 0.044, H2a(10–29) 0.013

For “AR [ me 2a ] T KQ T AR KST GGKAPR KQ L A [H3(1–21)R2me2a, reference compound]”, the “kcat/KM (demethylation)” value (KDM4E [1]; FDH assay, 2 µM KDM4E, 200 µM 2OG, pH 7.5, n = 3 assay repeats) was 717 M⁻¹ s⁻¹ and the “kcat/KM relative to KDM substrate H3 K9me3 (fold less)” value (KDM4E [1]; same FDH assay, H3 K9me3 from ref 7) was 13 fold.
In the case of “Ac - SGR GKQ GGKAR AKAKT R SSR - O H [H2a(1–20)-OH, H2a(1–20) with a C-terminal carboxylic acid]”, the mass shift (KDM4E [2]) is reported as “no mass shift”, the “specific activity (hydroxylation)” value (KDM4E [3]; Figure 3b, LC–MS (*), replicate 1) is reported as 0 nmol/min/mg and the “specific activity (hydroxylation)” value (KDM4E [3]; Figure 3b, LC–MS (*), replicate 2) is reported as 0 nmol/min/mg. The “specific activity (hydroxylation)” value (KDM4E [3]; Figure 3b, LC–MS (*), replicate 3) was 0 nmol/min/mg, the “extent of hydroxylation (in words)” value (KDM4E [3]) was “no activity was observed” and the “specific activity (hydroxylation)” value (KDM4E [3]; [5]) was “no activity”.
“Ac - SGR GKQ GGKAR AKAKT R SSR AGL Q F [H2a(1–25)]” was tested, and the “+16 Da mass shift (hydroxylation)” value (KDM4E [2]) was “+16 Da mass shift”, the “specific activity (hydroxylation)” value (KDM4E [3]; Figure 3b, MALDI–TOF MS, replicate 1) was 0.3027 nmol/min/mg and the “specific activity (hydroxylation)” value (KDM4E [3]; Figure 3b, MALDI–TOF MS, replicate 2) was 0.3905 nmol/min/mg. The “extent of hydroxylation (in words)” value (KDM4E [3]) was “lower” and the “specific activity (hydroxylation)” value (KDM4E [3]; [5]) was 0.35 nmol/min/mg.
With “H2a(1–20)R3me1: H2a(1–20) mono-methylated at Arg-3” the “+16 Da mass shift” value (KDM4E [4]) was “A +16 Da mass shift occurs”.
